d = 2'-deoxy (DNA); r = 2'-OH (RNA)
Assays:
Assay type in all cases: cell-based, human
MG63 cells = experiment: Flow cytometry uptake kinetics and ODN2006 blocking in MG63 cells
Protocol: To determine cpRNA cellular uptake kinetics, FACS experiments were repeated as mentioned above using MG63 cells, where Cy3-cpRNA was treated for different time points. Briefly, Cy3-cpRNA (50 nM) was added to cells, followed by incubation for 0.5 h, 1 h, 1.5 h, 2 h, 3 h and 4 h respectively. The cells were subsequently trypsinised and analyzed by FACS as mentioned above.
To perform […] blocking studies, seeded MG63 cells were incubated with 600 nM 3′-FITC labeled ODN2006 for 1 h, followed by addition of 50 nM cpRNA. Cells were incubated for additional 0.5 h, 1 h, 1.5 h, 2 h, 3 h and 4 h respectively, trypsinised and analyzed by FACS analysis as mentioned above.
To verify if the uptake mechanism of cpRNA was analogous to viral RNA and the RNA mimic polyriboinosinic:polyribocytidylic acid or poly(I:C), blocking studies were performed using the Btype single-stranded DNA sequence ODN2006 which share a common uptake receptor. This synthetic phosphorothioate modified oligo, though initially identified as a TLR9 agonist, blocks cellular uptake of viral RNA and poly(I:C) by preferentially competing with the common RNA uptake receptor. Blocking experiment were performed by pre-incubating the cells with FITC labeled ODN2006 for 1 h, followed by the addition of Cy3-labeled cpRNA. The blocking studies and cellular uptake was monitored using FACS analysis at different time points for up to 4 h. As a control experiment, the uptake kinetics was performed in the absence of FITC labeled ODN2006. […] These experiments verified the involvement of an alternate uptake mechanism and indicated the presence of a ubiquitous RNA capture receptor that required ˜1 h of maturation time before the endocytosis process could initiate.

IFN-α, IFN-β, IFN-γ = experiment: Interferon assay (IFN-α, β, γ mRNA by RT-PCR) in MG63 cells; details: 50 or 100 nM, 24 h, compared to cell-alone control or scrambled sequence
Protocol: cDNA synthesis was performed in triplicate using total RNA reverse transcribed using High Capacity cDNA reverse transcription kit (Applied Biosystems, USA), with non-template control added to ensure a lack of signal in assay background. Reactions were incubated on a 96-well Applied Biosystems 9800 Fast Thermal Cycler PCR System at 37° C. for 60 min followed by 95° C. for 5 min. The real-time PCR reactions were carried out with 10 μl of 2×TaqMan® Universal PCR Master Mix, no AmpErase® UNG (Applied Biosystems, USA), 9 μl diluted cDNA, and 1 μl of TaqMan gene specific assay mix in a 20 μl final reaction volume. Reference gene beta-actin (ACTB) (Applied Biosystems, USA) was selected as control for normalization of TaqMan data. […] Data from samples with a Ct value equal to or below 35 were further analyzed. Samples were normalized relative to endogenous control and differences in cycle number thresholds were calculated using comparative quantitation 2^−ΔΔcT method (also called the ΔΔCT method), commonly used for analyzing siRNA induced gene knockdown efficiency. […]
Thus, because cellular stress mainly originates from maturation of the RNA-TLR complex in the endosome or activation of RIG-1 in the cytoplasm, we investigated immune activation and IFN response using cpRNA and a scrambled sequence. The levels of Type-I (IFN-α and β) and Type-II (IFN-γ) IFN were tested via quantitative RT-PCR. […]

β-catenin = experiment: Western blot of β-catenin protein in MG63 cells; details: MG63, 50 nM, at 48 h, β-catenin cpRNA, no transfection reagent
Protocol: After 48 hours of transfection, cells were washed twice with ice-cold PBS and lysed in RIPA lysis buffer (50 mM Tris-HCl, pH 8.0, with 150 mM NaCl, 1.0% Igepal CA-630 (NP-40), 0.5% sodiumdeoxycholate, 0.1% SDS, and 1.0% protease inhibitor cocktail from SIGMA-ALDRICH®). Lysates were incubated on ice for 30 minutes and centrifuged at 10,000 rpm for 20 minutes to collect supernatant. Coomassie Plus—The Better Bradford Assay™ Reagent (Thermo Scientific) was used to measure protein concentrations. Thereafter, 20 μg of soluble protein was separated by SDS-PAGE and transferred to polyvinylidene difluoride membrane (Millipore). Primary antibodies against GAPDH (1:1000 dilution), β-catenin (1:1000 dilution; SIGMA-ALDRICH®), β-actin (1:1000; Cell Signaling Technology®) were used to probe the protein bands. Anti-Rabbit-HRP conjugated secondary antibodies (1:3000 dilution; R&D Systems®) were used to detect the primary antibodies, followed by the target protein visualization with EMD Millipore Immobilon™ Western Chemiluminescent HRP Substrate (ECL). […]
To further validate our results, we tested the gene knockdown efficiency of another gene CTNNB1 (β-catenin), which is expressed in MG63 cells. We performed a time course experiment (24, 48 and 72 h) by targeting CTNNB1 and GAPDH in MG63 cells and quantified the mRNA and protein levels using qRT-PCR and Western blot experiments respectively (FIG. 8).

## dT5: GAPDH siRNA, sense SEQ ID NO: 3 with dT5 3′-overhang, antisense SEQ ID NO: 2 with dT2 (sense CCGAGCCACAUCGCUCAGATTTTT; antisense UCUGAGCGAUGUGGCUCGGTT; sense: sugars from the 5' end r19 d5, backbone not given here; antisense: sugars from the 5' end r19 d2, backbone not given here)
MG63 cells; MG63 cells pre-incubated 1 h with 600 nM FITC labeled ODN2006
  effect of ODN2006 on cellular uptake: did not inhibit uptake
MG63 cells; MG63 cells, 50 nM, 37° C.
  time after which cellular uptake was initiated: ~1 h
  time in which uptake finished after initiation: 2 h
IFN-α, IFN-β, IFN-γ
  IFN response / immune activation (IFN-α, β, γ mRNA): no significant IFN response
β-catenin
  CTNNB1 protein level: complete knockout
